Experiment [1] relates to endothelial cells (ECs), HCAEC=Human Coronary Artery Endothelial Cells. Briefly: in vitro adhesion assay, attachment factor adsorbed onto non-tissue culture dish. It is filed as cell-based. Conditions: for specificity of cell adhesion, ECs over SMCs: HCAEC versus HASMC, adsorbed peptide; for adhesion data among bioligands tested / cell adhesion and cell spreading compared with fibronectin positive control: adsorbed attachment factor. An excerpt: Cell Recruitment to Bioactive Agents To select appropriate bioligands for use as recruitment factors in stent applications, an in vitro adhesion assay was developed. This assay can distinguish between endothelial cells (ECs) and smooth muscle cells (SMCs) to aid in selecting potential attachment factors. Both the ECs and SMCs used in these assays were purchased from Cambrex (Baltimore, Md.) (HASMC=Human Aortic Smooth Muscle Cells and HCAEC=Human Coronary Artery Endothelial Cells).
(§1) The attachment factor, in a phosphate buffered saline (PBS) solution, was coated onto a non-tissue culture dish and allowed to adsorb overnight at 4° C. The following day the plate was blocked for 1 hour at room temperature with heat-inactivated, 0.2% bovine serum albumin (BSA) solution (in PBS) to prevent non-specific attachment. A timed adhesion assay was then conducted. The assay includes negative control wells coated only with PBS and positive control wells coated with fibronectin. So far, none of the adhesion factors tested has surpassed the cell adhesion and cell spreading induced by fibronectin. In addition to adhesion, spreading is also an important consideration in determining the suitability of a substrate. If the cells are not able to spread, it is unlikely that the cells will proliferate on that surface.
In addition to microscopic observations, cell adhesion was quantitated using an ATP assay. Data of a representative adhesion assay quantitation by ATP standard curve is shown in the graph in FIG. 4, which illustrates the comparative results obtained at 2, 4 and 6 hours into the assay. […] The cell spreading determined in microscopic observations may indicate that cell spreading can increase the overall degree of cell adhesion since more space is occupied by a well spread cell than by an adhered cell that has not spread on the surface, due to timing of data points or appropriateness of the substrate used. The ATP data are useful to support the observational findings of the adhesion assay but cannot replace the adhesion assay.

The next experiment relates to ECs. Kind of experiment: adhesion assay with peptides conjugated to PEA polymer. The format is cell-based, Human. Conditions: for ability of peptide to bind to cells after conjugation / adhesion of ECs compared to SMCs on conjugated peptide versus unconjugated PEA-H polymer: peptide conjugated to PEA-H polymer; for adhesion relative to basal levels: assays 1 and 2. As to the method:
as §1
The first conjugation was done to the PEA-H version of the polymer (acid) since this polymer has suitable sites for conjugation. The peptides can be covalently bound to this polymer via a wide variety of suitable functional groups. For example, when the biodegradable polymer is a poly(ester amide) (PEA) containing Lysine residues, the carboxyl groups from the Lysine residues can be used to react with a complementary moiety on the peptide, such as an hydroxy, amino, thio moiety, and the like (5). Specifically, the PEA-H polymer with free COOH reacts with water soluble carbodiimide (WSC) and N-Hydroxysuccinimide (HOSu) to produce an activated ester, which, in turn, reacts with an amino functional group of a peptide to provide an amide linkage (FIG. 6B). By using a fluorescent dansyl-lysine (FIG. 5), the optimal reaction conditions for activation and conjugation were determined (FIG. 6A).
The conjugation of CS5 and GREDVDY peptides to the polymer was then performed using the same protocol (FIG. 6B).
A similar protocol (see flow chart FIG. 6B) was used to conjugate combinations of the acid polymer with PEA polymer of structure (I) containing acetylated ends and benzylated COOH groups, (PEA-AcBz) and PEA-TEMPO (50/50 and 10/90), respectively. By combining the conjugatable acid form with the other polymers, a determination could be made whether the presence of the recruitment peptide on the polymer conferred an advantage in EC recruitment.
Microscopic observations taken at 2 h, 4 h and 6 h from duplicate wells from two representative adhesion assays are summarized in Table 2 below.

Experiment [2] deals with progenitor endothelial cells (PECs). Kind of experiment: trial PEC isolation, plating on coated plates. The format is cell-based, human. As to conditions: fibronectin-coated versus gelatin-coated plates. An excerpt: PEC Isolations To establish the protocol for isolating the progenitor endothelial cells (PECs) from peripheral blood, blood from healthy, normal donors was used. A literature review generated multiple PEC isolation protocols (J.C.I. (2000) 105:71-77; Circ. (2003) 107:143-149; Circ. (2003) 107:1164-1169; Plast. Reconstruc. Surgr. (2004) 113:284; and Am. J. Physiol. Heart Circ. Physiol. (2004) 286:H1985-H1993). […] The flow chart in FIG. 2 presents a modified protocol followed in isolation of PECs.
Cells were isolated from ˜120 milliliters of peripheral blood and then single aliquots of cells were plated in Endothelial Basal Medium and 5% FBS (Cambrex). The media was changed every 4-5 days. The total cell number obtained from the isolations was donor-dependent and ranged from 40 million to 200 million cells.

No end group written: not given here.

With GEEIQIGHIPREDVDYHLYP [CS5], in experiment [1], the “specificity of cell adhesion, ECs over SMCs” value is on record as “showed specificity for ECs over SMCs”; the “adhesion data among bioligands tested” value is “gave the most promising adhesion data”; the “cell adhesion and cell spreading compared with fibronectin positive control” value is “neither of these peptide sequences equaled the large molecule fibronectin in cell adhesion or spreading”. Also, in the experiment on ECs, the “ability of peptide to bind to cells after conjugation” value is given as “did not alter their ability to bind to cells” and the “adhesion of ECs compared to SMCs on conjugated peptide versus unconjugated PEA-H polymer” value is on record as “adhered significantly better to the conjugated peptides than on the unconjugated PEA-H polymer”.

For the substance GREDVDY, in experiment [1], the “specificity of cell adhesion, ECs over SMCs” value was “showed specificity for ECs over SMCs”; the “adhesion data among bioligands tested” value is given as “gave the most promising adhesion data”; the “cell adhesion and cell spreading compared with fibronectin positive control” value was “neither of these peptide sequences equaled the large molecule fibronectin in cell adhesion or spreading”. Further, in the experiment with ECs (10/90 PEA-H/PEA-TEMPO (H/T) conjugated to peptide), the “adhesion relative to basal levels” value was “increased adhesion over basal levels”. Moreover, in the experiment on ECs (50/50 PEA-H/PEA-Ac-Bz (H/Bz) conjugated to peptide), the “adhesion relative to basal levels” value is listed as “increased adhesion over basal levels”. Besides, the “cell recruitment, complete evaluation of assays with conjugated peptides on polymer” value in the experiment with ECs (Table 2 assays) is listed as “more robust in cell recruitment than the longer (20 mer) CS5 peptide”. In addition, in the experiment on ECs, the “ability of peptide to bind to cells after conjugation” value is “did not alter their ability to bind to cells” and the “adhesion of ECs compared to SMCs on conjugated peptide versus unconjugated PEA-H polymer” value is reported as “adhered significantly better to the conjugated peptides than on the unconjugated PEA-H polymer”.

For the substance fibronectin, the “attachment and growth of isolated cells on coated plates” value in experiment [2] was “attach and grow better on fibronectin-coated plates than on gelatin-coated plates”.
